Source: PubChem BioAssay (NCI)
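1) Cells in 96-well plates. 2) Compound, 48 h, 5 concentrations. 3) Linear interpolation between surrounding doses. 4) Unreached endpoint = highest concentration. GI50: concentration for 50% inhibition of growth. TGI is the concentration that stops growth completely.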

Tests used:
Experiment in all cases: inhibition of tumour cell growth, NCI panel, 48 h
SN12C renal = test system: SN12C renal
TK-10 renal = test system: TK-10 renal
SNB-19 CNS = test system: SNB-19 CNS
EKVX NSCLC = test system: EKVX NSCLC
MALME-3M melanoma = test system: MALME-3M melanoma
SF-268 CNS = test system: SF-268 CNS
OVCAR-8 ovarian = test system: OVCAR-8 ovarian
SK-MEL-28 melanoma = test system: SK-MEL-28 melanoma
OVCAR-5 ovarian = test system: OVCAR-5 ovarian
CCRF-CEM leukemia = test system: CCRF-CEM leukemia

Row | Compound | GI50 (SN12C renal) [µM] | TGI (SN12C renal) [µM] | GI50 (TK-10 renal) [µM] | TGI (TK-10 renal) [µM] | GI50 (SNB-19 CNS) [µM] | TGI (SNB-19 CNS) [µM] | GI50 (EKVX NSCLC) [µM] | TGI (EKVX NSCLC) [µM] | GI50 (MALME-3M melanoma) [µM] | TGI (MALME-3M melanoma) [µM] | GI50 (SF-268 CNS) [µM] | TGI (SF-268 CNS) [µM] | GI50 (OVCAR-8 ovarian) [µM] | TGI (OVCAR-8 ovarian) [µM] | GI50 (SK-MEL-28 melanoma) [µM] | TGI (SK-MEL-28 melanoma) [µM] | GI50 (OVCAR-5 ovarian) [µM] | TGI (OVCAR-5 ovarian) [µM] | GI50 (CCRF-CEM leukemia) [µM] | TGI (CCRF-CEM leukemia) [µM]
1 | Cn1cc(-c2csc(-c3cn(C)c4ncccc34)n2)c2ccccc21 | 3.07 | > 100 | 1 | 19.4 | 0.574 | 27 | 0.906 | > 100 | 0.647 | 41 | 1.12 | 37.4 | 0.666 | 22.7 | 1.23 | > 100 | 0.876 | 23.8 | 0.368 | > 61.6
2 | COc1ccc(C=O)c(N(C)C(=O)C(C)(C)C)c1 | – | > 100 | – | > 100 | – | > 100 | – | > 100 | – | > 100 | – | > 100 | – | > 100 | – | > 100 | – | – | – | > 100
3 | c1ccc(CNc2nc(Nc3ccc(-c4nc5ccccc5[nH]4)cc3)c3cn[nH]c3n2)cc1 | 2.75 | 7.37 | 2.93 | 8.35 | 4.27 | 31.3 | 3.27 | 23.6 | 1.81 | 3.8 | 2.37 | 7.1 | 2.57 | 6.73 | 2.15 | 6.68 | 2.52 | 6.86 | 3.62 | > 100
4 | OCCC#Cc1ccccc1C#Cc1ccccc1 | 12.5 | 26.8 | 11.3 | 23.4 | 28.1 | > 100 | 11.3 | 24.3 | 14 | 27.1 | 16.5 | 33.9 | 30.4 | 66.9 | 21.7 | 60.9 | 16.9 | 50.7 | 25.9 | > 100
5 | Cc1cc2c(C)nn(Cc3ccc(Cl)cc3Cl)c2c(C#N)c1C | – | > 100 | – | > 100 | – | > 100 | – | > 100 | – | > 100 | – | > 100 | – | > 100 | – | > 100 | – | > 100 | – | > 100
6 | COC(=O)C12C3C=CC(O3)C1C1C=CC2O1 (stereo unspecified) | – | > 100 | – | > 100 | – | > 100 | – | > 100 | – | > 100 | – | > 100 | – | > 100 | – | > 100 | – | > 100 | – | > 100
7 | CC(=O)OCC1OC(n2cnc3c(I)nc(I)nc32)C(OC(C)=O)C1OC(C)=O (stereo unspecified) | – | 26.7 | – | 33.6 | – | 25 | – | 33.3 | – | 33.5 | – | 28.5 | – | 24.1 | – | 28.5 | – | 35.1 | – | 27.4
8 | S=c1nc(/C=C/c2ccc(Cl)c(Cl)c2)[nH][nH]1 | – | > 100 | – | > 100 | – | > 100 | – | > 100 | – | > 100 | – | > 100 | – | > 100 | – | > 100 | – | > 100 | – | > 100
9 | CCCCCNC(=O)C1C(=O)N(CCCCC)C(=O)/C1=N\N (stereo unspecified) | – | > 100 | – | > 100 | – | > 100 | – | > 100 | – | > 100 | – | > 100 | – | > 100 | – | > 100 | – | > 100 | – | > 100
10 | O=C(NCCS(=O)(=O)N1C(=O)C2CCCN2C(=O)[C@@H]1Cc1ccccc1)OCc1ccccc1 (stereo partly specified) | – | > 100 | – | > 100 | – | > 100 | – | > 100 | – | > 100 | – | > 100 | – | > 100 | – | > 100 | – | > 100 | – | > 100
11 | CCN1N=CSC12C(=O)N(c1ccccc1)C(=O)N2c1ccccc1 (stereo unspecified) | – | > 100 | – | > 100 | – | > 100 | – | > 100 | – | > 100 | – | > 100 | – | > 100 | – | > 100 | – | – | – | > 100
12 | COc1ccc(Nc2nc3c(N)cc(C(F)(F)F)cc3nc2-c2ccccc2)cc1 | – | > 100 | – | > 100 | – | > 100 | – | > 100 | – | > 100 | – | > 100 | – | > 100 | – | > 100 | – | > 100 | – | > 100
13 | Cc1ccc2c(c1)/C(=N\N=C/c1cn(C(C)C)c3ccccc13)C(=O)N2 | 4.47 | > 100 | 15 | > 100 | 7.18 | > 100 | 22 | > 100 | 1.38 | 9.81 | 4.9 | > 100 | 4.7 | > 100 | 21.9 | > 100 | 35.1 | > 100 | 0.367 | > 100
14 | C[CH2][Sn]([CH2]C)([O]C(=O)c1cc(OC)c(OC)c(OC)c1)[O][Sn]([CH2]C)([CH2]C)[O]C(=O)c1cc(OC)c(OC)c(OC)c1 | 44 | 99.4 | 18.9 | 33.6 | > 75.1 | > 100 | > 53.9 | > 94.8 | 17.3 | 32.2 | 20.6 | 44.1 | > 42.8 | > 62.4 | 18.4 | 33.4 | > 100 | > 100 | 7.78 | 33.1
15 | O=C1/C(=C/c2ccccc2Cl)COc2ccccc21 | – | – | – | 27.1 | – | – | – | 29.7 | – | 29.7 | – | 34.1 | – | 33.4 | – | 30.1 | – | 32.4 | – | 33.7
16 | COC12c3ccccc3-c3ccccc3C1[C@@H](C(=O)O)[C@H]2C(=O)O (stereo partly specified) | – | > 10 | – | > 10 | – | > 10 | – | > 10 | – | > 10 | – | > 10 | – | > 10 | – | > 10 | – | > 10 | – | > 10
17 | CC[C@]12C=CCN3CC[C@]4(C(=C(C(=O)OC)C1)Nc1ccccc14)[C@@H]32 | 3.62 | 18.2 | 4.86 | 17.6 | 10.7 | 23.3 | 5.99 | 22.4 | 3.43 | 15.2 | 4.6 | 19.3 | 3.75 | > 100 | 4.49 | 17.9 | 6.55 | 21.2 | 2.73 | > 100
